Test results: patent US7645751B2, “Mandelic acid derivatives and their use as thrombin inhibitors” (AstraZeneca, priority 2000, dated 2010)
Structures can show the parent of a compound that is named as a salt.

Key:
[1] = Test G: determination of in vitro stability in liver microsomes (human); type: in vitro ADME; settings: 37° C., up to 60 min, NADH/NADPH
Procedure: (§1) Liver microsomes are prepared from Sprague-Dawley rats and human liver samples according to internal SOPs. The compounds are incubated at 37° C. at a total microsome protein concentration of 3 mg/mL in a 0.05 mol/L TRIS buffer at pH 7.4, in the presence of the cofactors NADH (2.5 mmol/L) and NADPH (0.8 mmol/L). The initial concentration of compound is 5 or 10 μmol/L. Samples are taken for analysis up to 60 minutes after the start of the incubation. The enzymatic activity in the collected sample is immediately stopped by adding 20% […] at a volume corresponding to 3.3% of the total sample volume. The concentration of compound remaining (FINAL CONC) in the 60 min. sample is determined by means of LCMS using a sample collected at zero time as reference (START CONC). The % of degraded thrombin inhibitor is calculated as: […]

[2] = Test G: determination of in vitro stability in liver microsomes (rat); type: in vitro ADME; settings: 37° C., up to 60 min, NADH/NADPH
Procedure: as §1

Row | Compound | melting point [°C] | conversion to the corresponding active inhibitor (free amidine) in liver microsomes from humans [1] | conversion to the corresponding active inhibitor (free amidine) in liver microsomes from rats [2]
1 | N=C(N)c1cnc(CNC(=O)[C@@H]2CCN2C(=O)[C@H](O)c2cc(Cl)cc(OC(F)F)c2)nc1 (as salt: TFA) [Example 36, Ph(3-Cl)(5-OCHF2)—(R)CH(OH)C(O)-Aze-NH—CH2-((5-amidino)-2-pyrimidinyl)] | 86 to 87 | – | –
2 | NC(=NO)c1ccc(CNC(=O)[C@@H]2CCN2C(=O)[C@H](O)c2cc(Cl)cc(OC(F)F)c2)cc1 [Example 2, Ph(3-Cl)(5-OCHF2)—(R)CH(OH)C(O)-Aze-Pab(OH)] | – | converted to the corresponding active inhibitor (free amidine) | converted to the corresponding active inhibitor (free amidine)
3 | CON=C(N)c1ccc(CNC(=O)[C@@H]2CCN2C(=O)[C@H](O)c2cc(Cl)cc(OC(F)(F)F)c2)cc1 [Example 7, Ph(3-Cl)(5-OCF3)—(R)CH(OH)C(O)-Aze-Pab(OMe)] | – | converted to the corresponding active inhibitor (free amidine) | converted to the corresponding active inhibitor (free amidine)
4 | CON=C(N)c1ccc(CNC(=O)[C@@H]2CCN2C(=O)[C@H](CO)c2cc(Cl)cc(OC(F)(F)F)c2)cc1 [Example 11, Ph(3-Cl)(5-OCF3)—(S)CH(CH2OH)C(O)-Aze-Pab(OMe)] | – | converted to the corresponding active inhibitor (free amidine) | converted to the corresponding active inhibitor (free amidine)
5 | CON=C(N)c1ccc(CNC(=O)[C@@H]2CCN2C(=O)[C@H](O)c2cc(Cl)cc(OC(F)F)c2)cc1 [Example 12, Ph(3-Cl)(5-OCHF2)—(R)CH(OH)C(O)-Aze-Pab(OMe)] | – | converted to the corresponding active inhibitor (free amidine) | converted to the corresponding active inhibitor (free amidine)
6 | CON=C(N)c1ccc(CNC(=O)[C@@H]2CCN2C(=O)[C@H](O)c2cc(Cl)cc(OCC(F)(F)F)c2)cc1 [Example 16, Ph(3-Cl)(5-OCH2CF3)—(R)CH(OH)C(O)-Aze-Pab(OMe)] | – | converted to the corresponding active inhibitor (free amidine) | converted to the corresponding active inhibitor (free amidine)
7 | CON=C(N)c1ccc(CNC(=O)[C@@H]2CCN2C(=O)[C@H](O)c2cc(Cl)cc(OCC(F)F)c2)cc1 [Example 18, Ph(3-Cl)(5-OCH2CHF2)—(R)CH(OH)C(O)-Aze-Pab(OMe)] | – | converted to the corresponding active inhibitor (free amidine) | converted to the corresponding active inhibitor (free amidine)
8 | CON=C(N)c1ccc(CNC(=O)[C@@H]2CCN2C(=O)[C@H](O)c2cc(Cl)cc(OCF)c2)cc1 [Example 20, Ph(3-Cl)(5-OCH2F)—(R)CH(OH)C(O)-Aze-Pab(OMe)] | – | converted to the corresponding active inhibitor (free amidine) | converted to the corresponding active inhibitor (free amidine)
9 | CON=C(N)c1ccc(CNC(=O)[C@@H]2CCN2C(=O)[C@H](O)c2cc(Cl)cc(OCCF)c2)cc1 [Example 22, Ph(3-Cl)(5-OCH2CH2F)—(R)CH(OH)C(O)-Aze-Pab(OMe)] | – | converted to the corresponding active inhibitor (free amidine) | converted to the corresponding active inhibitor (free amidine)
10 | CON=C(N)c1ccc(CNC(=O)[C@@H]2CCN2C(=O)[C@H](O)c2cc(Cl)cc(OC(CF)CF)c2)cc1 [Example 24, Ph(3-Cl)(5-OCH(CH2F)2)—(R)CH(OH)C(O)-Aze-Pab(OMe)] | – | converted to the corresponding active inhibitor (free amidine) | converted to the corresponding active inhibitor (free amidine)
11 | CON=C(N)c1ccc(CNC(=O)[C@@H]2CCN2C(=O)[C@H](O)c2cc(F)cc(OC(F)F)c2)cc1 [Example 26, Ph(3-F)(5-OCHF2)—(R)CH(OH)C(O)-Aze-Pab(OMe)] | – | converted to the corresponding active inhibitor (free amidine) | converted to the corresponding active inhibitor (free amidine)
12 | CON=C(N)c1ccc(CNC(=O)[C@@H]2CCCN2C(=O)[C@H](O)c2cc(Cl)cc(OC(F)F)c2)cc1 [Example 33, Ph(3-Cl)(5-OCHF2)—(R)CH(OH)—C(O)-Pro-Pab(OMe)] | – | converted to the corresponding active inhibitor (free amidine) | converted to the corresponding active inhibitor (free amidine)
13 | CO/N=C(\N)c1cnc(CNC(=O)[C@@H]2CCN2C(=O)[C@H](O)c2cc(Cl)cc(OC(F)F)c2)nc1 [Example 37, Ph(3-Cl)(5-OCHF2)—(R)CH(OH)C(O)-Aze-NH—CH2-((5-methoxyamidino)-2-pyrimidinyl)] | – | converted to the corresponding active inhibitor (free amidine) | converted to the corresponding active inhibitor (free amidine)
14 | CO/N=C(\N)c1cc(F)c(CNC(=O)[C@@H]2CCN2C(=O)[C@H](O)c2cc(Cl)cc(OC(F)F)c2)c(F)c1 [Example 40, Ph(3-Cl)(5-OCHF2)—(R)CH(OH)C(O)-Aze-Pab(2,6-diF)(OMe)] | – | converted to the corresponding active inhibitor (free amidine) | converted to the corresponding active inhibitor (free amidine)
15 | CCON=C(N)c1ccc(CNC(=O)[C@@H]2CCN2C(=O)[C@H](O)c2cc(Cl)cc(OC(F)F)c2)cc1 [Example 43, Ph(3-Cl)(5-OCHF2)—(R)CH(OH)C(O)-Aze-Pab(OEt)] | – | converted to the corresponding active inhibitor (free amidine) | converted to the corresponding active inhibitor (free amidine)
16 | CC(C)ON=C(N)c1ccc(CNC(=O)[C@@H]2CCN2C(=O)[C@H](O)c2cc(Cl)cc(OC(F)F)c2)cc1 [Example 45, Ph(3-Cl)(5-OCHF2)—(R)CH(OH)C(O)-Aze-Pab(OiPr)] | – | converted to the corresponding active inhibitor (free amidine) | converted to the corresponding active inhibitor (free amidine)
17 | Ph(3-Br)(5-OCHF2)—(R)CH(OH)C(O)-Aze-Pab(OMe) [Example 29] | – | converted to the corresponding active inhibitor (free amidine) | converted to the corresponding active inhibitor (free amidine)
18 | Ph(3-Cl)(5-OCHF2)—(R)CH(OH)C(O)-Aze-Pab(OcBu) [Example 1] | – | converted to the corresponding active inhibitor (free amidine) | converted to the corresponding active inhibitor (free amidine)
